Assay results published in patent publication US9918968B2, “Rapamycin analogs targeting proteasome function in the treatment of cancer” (THE BOARD OF REGENTS OF THE UNIVERSITY OF TEXAS SYSTEM, priority 2013, dated 2018).

Columns and labels:
[1] = target: T1, 20S core with 19S, 11S, tRpt5 or tPA200; assay: Activation of 20S core ChT-L activity by α face ligands (19S, 11S, tRpt5, tPA200); assay type: biochemical, human
T1 construct: purchased Enzo LifeSciences (20S, 11S); Boston Biochemicals (19S complex)
Protocol: (§1) Human purified proteasome complexes were purchased from Enzo LifeSciences or Boston Biochemicals (19S complex). BODIPY-casein (Invitrogen/Molecular Probes) was used as a model protein substrate, with increasing fluorescence of BODIPY labeled peptide products of degradation monitored for up to 8 hours at 37° C. The peptidase activity of the enzyme was measured as arbitrary intensity units of the released fluorescent group 7-amino-4-methylcoumarin (AMC) from peptide substrates, as described. The common substrates specific for the three kinds of active sites: succinyl-LeuLeuValTyr-7-amido-4-methylcoumarin (Suc-LLVY-MCA; for the ChT-L activity; Bachem), butoxycarbonyl-LeuArgArg-MCA (BocLRR-MCA; for T-L; Bachem) and carbobenzoxy-LeuLeuGlu-MCA (CbzLLE-MCA; for PGPH; Enzo Life Sciences International, Inc.) were used at 100 μM final concentrations, unless stated otherwise (Gaczynska and Osmulski, 2005). Proteasome substrates, rapamycin, its derivatives, and competing peptides were stocked in DMSO and diluted 100-fold in the reaction mixtures. The Rpt5 and PA200 C-terminal peptides were synthesized in the Departmental Peptide Synthesis Core using the standard SPPS chemistry. To activate the latent 20S proteasome, 0.005% (final concentration) of sodium dodecyl sulfate (SDS) was used. The reactions were carried out in 96 well plates, with 2.3 nM proteasome and other components as indicated dissolved in 50 mM Tris-HCl buffer (pH 8.0) and incubated at 37° C. for up to 1 hour. The fluorescence of products was monitored every 2 minutes with a Fluoroskan Ascent plate reader. Reaction rates were calculated from smoothed linear segment of kinetic curves using OriginPro 8.6 (OriginLabs, Northampton, Mass.). For the determination of an inhibition type, at least six distinct substrate concentrations and two inhibitor concentrations were used. The kinetic parameters of inhibition were analyzed in terms of the Michaelis-Menten formalism using the enzyme kinetic module of SigmaPlot v.12 (Systat Software, Inc, San Jose, Calif.) to perform the respective calculations.
De novo assembly of 19S from subunits is a complex process assisted by chaperones. In vitro, and likely also in cells, the 26S can also be reconstructed from 20S and the already-assembled 19S particle in the presence of ATP (Smith et al., 2005). Enhancement of the peptidase activities of the core proteasome is an established test for efficiency of the in vitro reconstruction. […] In contrast, a pretreatment of 20S with 5 μM rapamycin before adding ATP and 19S totally abrogated the activation, leaving the proteasome almost 40% inhibited instead (FIG. 6).

[2] = target: T2, human 20S proteasome, PGPH peptidase; assay: PGPH peptidase activity of purified human 20S proteasome (CbzLLE-MCA); assay type: biochemical; details: for IC50: latent human 20S proteasome
T2 construct: purchased Enzo LifeSciences
Protocol: as §1
(§2) IC50 values (a drug concentration causing 50% inhibition of the indicated enzymatic activity) were calculated for ChT-L and PGPH peptidases. Kd (dissociation constant) and Bmax (maximal activation effect achieved; in % above the control activity) values were calculated for the T-L peptidase. Mean±SD from n=2 or 3 experiments, or data from representative experiments set in duplicates or triplicates, are presented in the table. All three peptidase activities changed by no more than ±20%, without a concentration-dependent trend, upon treatment with up to 10 μM of rapamycin unrelated mTOR inhibitors PI-103 or NVP-BEZ235, in two independent experiments.

[3] = target: T3, human 20S proteasome, ChT-L peptidase; assay: ChT-L peptidase activity of purified human 20S proteasome (Suc-LLVY-MCA); assay type: biochemical; details: for IC50: latent human 20S proteasome
T3 construct: purchased Enzo LifeSciences
Protocol: as §1, with “The common substrates specific for the three kinds of active sites: succinyl-LeuLeuValTyr-7-amido-4-methylcoumarin (Suc-LLVY-MCA; for the ChT-L activity; Bachem), butoxycarbonyl-LeuArgArg-MCA (BocLRR-MCA; for T-L; Bachem) and carbobenzoxy-LeuLeuGlu-MCA (CbzLLE-MCA; for PGPH; Enzo Life Sciences International, Inc.) were used at 100 μM final concentrations, unless stated otherwise (Gaczynska and Osmulski, 2005).” left out, “The reactions were carried out in 96 well plates, with 2.3 nM proteasome and other components as indicated dissolved in 50 mM Tris-HCl buffer (pH 8.0) and incubated at 37° C. for up to 1 hour.” left out, “calculations. […]” for “calculations.”
The in vitro assay for testing the ChT-L peptidase activity of the purified human 20S proteasome was performed as described above.

[4] = target: T4, human 20S proteasome, T-L peptidase; assay: T-L peptidase activity of purified human 20S proteasome (BocLRR-MCA); assay type: biochemical; details: for Kd: activation of T-L peptidase; for Bmax [%]: T-L: maximal activation effect, % above the control activity
T4 construct: purchased Enzo LifeSciences
Protocol: as §1, §2

[5] = system: T5, 20S proteasome α face; assay: AFM imaging of open/closed conformers of 20S proteasome α face; design: species or system human; details: 10 μM compound
T5 construct: purchased Enzo LifeSciences
Protocol: AFM imaging of the 20S proteasomes were performed as previously described, in tapping (oscillating) mode in liquid (Osmulski et al., 2009 and Gaczynska and Osmulski, 2011). In short, 3 μL of proteasome preparations diluted to nanomolar concentration were deposited on a freshly cleaved muscovite mica surface. After 2 min incubation allowing electrostatic attachment of the protein particles to mica the droplet was overlaid with 30 microL of 50 mM Tris-HCl buffer (pH 7.0) and mounted in the wet chamber of a MultiMode NanoScope Ma (Bruker Corp.). Oxide-sharpened silicon nitride tips on cantilevers with a nominal spring constant 0.32 N/m (Bruker Corp.) were used to image 1 μm^2 fields in the height mode, with a scan rate of 3.05 Hz. The excitation frequency was manually tuned to 9-10 kHz, with a drive voltage of 200-500 mV and a relatively high set point (1.6 V to 1.9 V) to assure tapping with low, non-destructive force. […] As the inventors established previously, such resolution was sufficient to detect distinct conformations of the α face, covered by six scan lines. Multiple fields were scanned for each sample to collect images of hundreds of particles. Selected fields were repeatedly scanned to monitor changes in topography of the same particles for prolonged time. Inhibitors and the SucLLVY-MCA substrate were diluted in 10 μL of the imaging buffer and directly injected into the chamber. Raw images are presented, with a standard plain-fit and flattening (NanoScope software v.5.12) used as the only processing tools. For display purposes the brightness and contrast of the images was adjusted with the Nanoscope software or with Adobe Photoshop (Adobe Systems Inc.), and outlier scan lines were occasionally manually removed (Nanoscope software). Top view (“standing”, rounded) proteasomes were distinguished from the minor population of side-view (“lying”, rectangular) particles as described, by comparison of their length—to width ratios (Osmulski et al., 2009). The dimensions of particles were approximated and a shape of the α face in top-view proteasomes was judged with the help of a section tool in the Nanoscope v.5.12 or SPIP v.6.02 software (Image Metrology).
For this purpose, the inventors used the noninvasive tapping mode atomic force microscopy (AFM) in liquid, the imaging technique suitable for analysis of surface topography of macromolecules in their native state with a nanometer-scale practical resolution. The inventors established before that AFM imaging is a useful tool for studying structural dynamics of the 20S α face (Osmulski et al., 2009, Gaczynska et al., 2003; Gaczynska et al., 2011). They acquired and analyzed images of hundreds of single native, fully active 20S molecules. The majority of particles were in top-view (“standing”) position conveniently allowing for imaging of their α faces. […] Following previous extensive studies, the inventors refer to the two forms as “closed-gate” and “open-gate” proteasomes, respectively (Osmulski et al., 2009). As described before, the inventors used the shape of sections carried out in four directions through the top portion of the surface topography of the α ring to distinguish between the two forms. In short, the particle was classified as closed if all four sections were cone-shaped. In contrast, the particle was classified as open if all sections presented a dip surrounded by a rim (FIG. 5A) (Osmulski, et al., 2009). The same particles imaged in consecutive scans were able to assume either closed or open conformations, however the cone-shaped particles were always more abundant than crater-shaped, and accounted for about three-quarters of the imaged molecules (FIG. 5B). Addition of rapamycin to the imaged particles remarkably changed the partition of forms. […]

Compound: 11S: 11S proteasome activator complex PA28/REG
- increase of ChT-L activity by protein complex ([1]; 1:1 molar ratio with 20S): 8 fold

Compound: C=CC[C@@H]1/C=C(\C)C[C@H](C)C[C@H](OC)[C@H]2O[C@@](O)(C(=O)C(=O)N3CCCC[C@H]3C(=O)O[C@H](/C(C)=C/[C@@H]3CC[C@@H](O)[C@H](OC)C3)[C@H](C)[C@@H](O)CC1=O)[C@H](C)C[C@@H]2OC [FK-506]
- lowering of activation by tRpt5 ([1]; 10 μM derivative, 10 μM tRpt5): about 30%
- inhibition of proteasome with or without tPA200 ([1]; 10 μM derivative, presence or absence of 10 μM tPA200): about 40%
- IC50 [2]: 0.93 ± 0.04 µM
- IC50 [3]: > 20 µM
- Kd [4]: 1.14 µM
- Bmax [%]: T-L [4]: 257%

Compound: Oc1cccc(-c2nc(N3CCOCC3)c3oc4ncccc4c3n2)c1 [PI-103]
- effect on activation of 20S with 19S ([1]; 5 μM): no detectable effects
- closed conformers [5]: 74%±4%
- closed conformers after substrate ([5]; then SucLLVY-MCA 100 μM): 29%±5%

Compound: CO[C@H]1C[C@@H]2CC[C@@H](C)[C@@](O)(O2)C(=O)C(=O)N2CCCC[C@H]2C(=O)O[C@H]([C@H](C)C[C@@H]2CC[C@@H](OCCO)[C@H](OC)C2)CC(=O)[C@H](C)/C=C(\C)[C@@H](O)[C@@H](OC)C(=O)[C@H](C)C[C@H](C)/C=C/C=C/C=C/1C [everolimus]
- IC50 [2]: 0.48 ± 0.11 µM
- IC50 [3]: 2.5 ± 0.7 µM
- Kd [4]: 0.07 µM
- Bmax [%]: T-L [4]: 93%

Compound: CC[C@@H]1/C=C(\C)C[C@H](C)C[C@H](OC)[C@H]2O[C@@](O)(C(=O)C(=O)N3CCCC[C@H]3C(=O)O[C@H](/C(C)=C/[C@@H]3CC[C@H](Cl)[C@H](OC)C3)[C@H](C)[C@@H](O)CC1=O)[C@H](C)C[C@@H]2OC [pimecrolimus]
- closed conformers [5]: ~40%
- open conformers [5]: about 60%
- IC50 [2]: 0.57 ± 0.12 µM
- IC50 for PGPH increase as compared with rapamycin ([2]; relative to rapamycin): 40%
- remaining ChT-L activity ([3]; 5 μM pimecrolimus alone): 82%
- IC50 [3]: > 20 µM
- Kd [4]: 1.82 µM
- Bmax [%]: T-L [4]: 483%

Compound: CO[C@H]1C[C@@H]2CC[C@@H](C)[C@@](O)(O2)C(=O)C(=O)N2CCCC[C@H]2C(=O)O[C@H]([C@H](C)C[C@@H]2CC[C@@H](O)[C@H](OC)C2)CC(=O)[C@H](C)/C=C(\C)[C@@H](O)[C@@H](OC)C(=O)[C@H](C)C[C@H](C)/C=C/C=C/C=C/1C [rapamycin]
- inhibition of ChT-L activity, 20S pretreated before ATP and 19S ([1]; 5 μM, 19S 1:1): ~40%
- inhibition of proteasome in presence of tPA200 ([1]; 10 μM compound, 10 μM tPA200): 50%
- PGPH peptidase activity ([2]; 0.2 μM, % of control): 48%
- PGPH peptidase activity after 10-fold dilution ([2]; after incubation with 0.2 μM, 10-fold dilution): 96%
- IC50 [2]: 0.41 ± 0.03 µM
- Ki ([2]; noncompetitive inhibition): 0.25 µM
- remaining ChT-L activity ([3]; 2 μM rapamycin alone): 70%
- ChT-L peptidase activity ([3]; 2 μM, % of DMSO control, representative experiment): 52%
- ChT-L peptidase activity after 10-fold dilution ([3]; after incubation with 2 μM, 10-fold dilution): 99%
- IC50 [3]: 1.9 ± 0.2 µM
- Ki ([3]; mixed inhibition model): 0.49 µM
- Kd [4]: 0.14 µM
- Bmax [%]: T-L [4]: 83%

Compound: CO[C@H]1C[C@@H]2CC[C@@H](C)[C@@](O)(O2)C(=O)C(=O)N2CCCC[C@H]2C(=O)O[C@H]([C@H](C)C[C@@H]2CC[C@@H](OP(C)(C)=O)[C@H](OC)C2)CC(=O)[C@H](C)/C=C(\C)[C@@H](O)[C@@H](OC)C(=O)[C@H](C)C[C@H](C)/C=C/C=C/C=C/1C [ridaforolimus]
- IC50 [2]: 0.43 ± 0.11 µM
- IC50 [3]: 2.9 ± 0.5 µM
- Kd [4]: 0.11 µM
- Bmax [%]: T-L [4]: 114%

Compound: CO[C@H]1C[C@@H]2CC[C@@H](C)[C@@](O)(O2)C(=O)C(=O)N2CCCC[C@H]2C(=O)O[C@H]([C@H](C)C[C@@H]2CC[C@@H](OC(=O)C(C)(CO)CO)[C@H](OC)C2)CC(=O)[C@H](C)/C=C(\C)[C@@H](O)[C@@H](OC)C(=O)[C@H](C)C[C@H](C)/C=C/C=C/C=C/1C [temsirolimus]
- IC50 [2]: 0.36 ± 0.03 µM
- IC50 for PGPH lower than rapamycin ([2]; relative to rapamycin): 20%
- IC50 [3]: 2.1 ± 0.2 µM
- IC50 for ChT-L lower than rapamycin ([3]; relative to rapamycin): ~40%
- Kd [4]: 0.19 µM
- Bmax [%]: T-L [4]: 81%
